According to patent publication US9149424B2, “Compositions and methods for reducing hepatotoxicity associated with drug administration” (YALE UNIVERSITY, priority 2007, dated 2015):
“Also recorded” adds a separate entry of the source.

Experiments:
[1] = system: wild-type mice; assay: APAP induced hepatotoxicity, liver histology (H&E) at 12 hours; format: in vivo, mouse; conditions: aspirin 60 mg/l in drinking water three days before APAP; 12 hours after APAP
Protocol: (§1) APAP (Sigma, Mo.) solution was made fresh for each experiment in PBS at 20 mg/ml and heated in a water bath to 55° C. to dissolve. APAP was dosed at 500 mg/kg and injected I.P after 15 hrs of starvation. Animals were euthanized by ketamine/xylazine injection at 12 hours for collection of serum, isolation of liver lymphocytes or collection of liver tissue for histology, or they were observed every four hours for 72 hours until they reached criteria for euthanasia (lack of response to stimuli or lack of righting reflex).
(§2) Aspirin (Sigma, Mo.) was made fresh for each experiment. For dosing prior to APAP it was dissolved in single deionized water at 60 mg/l and heated to 42° C. with rapid stirring to dissolve, then rapidly placed in an ice water bath to cool. Aspirin in water was given to the mice 60-72 hours prior to APAP injection. Assuming water consumption of 3-5 ml per day this dose would be equivalent to a 300-500 mg dose in an 80 kg adult human. For co-administration of APAP and aspirin, aspirin was gavaged at a dose of 6 mg/kg in a volume of 100 ul of water immediately after ip injection of APAP. Clopidogrel (Gilead Pharmaceuticals, CA.) was dissolved in PBS at 6 mg/ml and administered by gavage of 100 ul, 30 mg/kg, every 24 hours beginning 48 hours prior and ending 24 hours after APAP injection. Cox-1 inhibitor (SC-560). […]

[2] = system: wild-type mice; assay: APAP induced hepatotoxicity, serum ALT at 12 hours; format: in vivo, mouse; conditions: aspirin pre-treatment in drinking water; 12 hrs after APAP; P<0.04
Protocol: as §1
as §2, with “APAP.” for “APAP. Clopidogrel (Gilead Pharmaceuticals, CA.) was dissolved in PBS at 6 mg/ml and administered by gavage of 100 ul, 30 mg/kg, every 24 hours beginning 48 hours prior and ending 24 hours after APAP injection. Cox-1 inhibitor (SC-560).”
(§3) TLR9 antagonist (ODN2088, 50 microg×2) or PBS, were injected ip into wild-type mice immediately after and at 6 hours after APAP injection and total mouse liver was obtained 12 hours after APAP injection for quantitative Q-PCR for IL-1β. […]

[3] = system: pro-IL-18 transcript; assay: Quantitative real-time PCR of total liver 12 hours after APAP, pro-IL-18; format: in vivo, mouse; conditions: aspirin pre-treatment in drinking water
Protocol: as §1
(§4) Q-PCR was performed for IL-1β and IL-18 using commercial primer-probe sets (Applied Biosystems, Framingham, Mass.) and the Applied Biosystem 7500 real-time PCR system. Expression of glyceraldehyde 3-phosphate dehydrogenase was used to standardize the samples, and the results were expressed as a ratio compared with untreated HSCs. Quantitative Real-time PCR for mRNA expression of IL-18, IL-1β, TNF-α and IFN-γ. Total mouse liver was obtained 12 hours after APAP and cDNA was prepared. Quantitative real-time PCR (Q-PCR) was performed for IL-18 and IL-1β using commercial primer-probe sets (Applied Biosystems, Calif.) and the Applied Biosystem 7500 real time PCR system. Expression of GAPDH was used to standardize the samples, and the results were expressed as a ratio compared to control.

[4] = system: IFN-γ; assay: Quantitative real-time PCR of total liver 12 hours after APAP, IFN-γ; format: in vivo, mouse; conditions: aspirin pre-treatment
Protocol: as §1, §4

[5] = system: NALP3 inflammasome; assay: Uric acid (MSU crystal) peritonitis, Gr-1 positive neutrophils in peritoneal lavage; format: in vivo, mouse; conditions: low dose aspirin (60 mg/l) in drinking water for three days before MSU 3 mg ip; lavage at 3 hours
Protocol: Peritonitis was induced with uric acid crystals as previously described by injecting 3 mg of MSU intraperitoneally per mouse (27). Three hours after injection peritoneal lavage was performed on mice euthanized by isoflurane inhalation. Neutrophil infiltration was evaluated by flow cytometry. The percent of Gr-1 (BD Pharmingen, CA) positive cells was multiplied by the total cell counts.

[6] = system: pro-IL-1β transcript; assay: Quantitative real-time PCR of total liver 12 hours after APAP, pro-IL-1β; format: in vivo, mouse; conditions: aspirin pre-treatment in drinking water
Protocol: as §1, §3
as §4, with “Total mouse liver was obtained 12 hours after APAP and cDNA was prepared.” left out, “Expression of GAPDH was used to standardize the samples, and the results were expressed as a ratio compared to control.” left out

[7] = system: wild-type mice; assay: Acetaminophen (APAP) induced hepatotoxicity, survival over 72 hours; format: in vivo, mouse
Protocol: C57BL/6 mice were purchased from commercial sources. […] These mice have been described previously (39, 40). IL-1β was neutralized in by using the anti-IL-1β antibody from clone B122 (a gift of R. Schreiber, Washington University) at a dose of 0.2 mg/mouse iv twice a day for a total of 48 hours after giving APAP. Control mice received Armenian hamster isotype control antibody. For survival experiments animals were euthanized when they became moribund using criteria of lack of response to stimuli or lack of righting reflex. Animal protocols were approved by the Yale University animal care and use committee. [include references for IPAF−/− (M. Lara-Tejero et al. JEM 2006) and IL-18−/−. Need to add TLR9−/− and TLR3−/−]
as §1
Aspirin (Sigma, Mo.) was made fresh for each experiment. For dosing prior to APAP it was dissolved in single deionized water at 60 mg/l and heated to 42° C. with rapid stirring to dissolve, then rapidly placed in an ice water bath to cool. Aspirin in water was given to the mice 60-72 hours prior to APAP injection. Assuming water consumption of 3-5 ml per day this dose would be equivalent to a 300-500 mg dose in an 80 kg adult human. For co-administration of APAP and aspirin, aspirin was gavaged at a dose of 6 mg/kg in a volume of 100 ul of water immediately after ip injection of APAP. Clopidogrel (Gilead Pharmaceuticals, CA.) was dissolved in PBS at 6 mg/ml and administered by gavage of 100 ul, 30 mg/kg, every 24 hours beginning 48 hours prior and ending 24 hours after APAP injection. Cox-1 inhibitor (SC-560). SC-560 (Cayman chemical, MI) was dissolved at 50 mg/ml in DMSO and further dissolved in PBS in order to gavage a dose of 5 mg/kg in 100 ul.

[8] = system: pro-IL-1β transcript in THP1 cells; assay: THP1 cells stimulated with LPS, real-time PCR pro-IL-1β; format: cell-based, human; conditions: THP1 cells incubated overnight with aspirin (1.5 mM, 0.15 mM), then LPS 10 μg/ml 8 hours
Protocol: The human monocytic cell line THP1 was maintained in RPMI with 10% FBS. Stimulation with LPS (Sigma, Mo.) was performed by plating cells at 5×10^5 per 24 well, incubating overnight with aspirin or control media prior to adding LPS at 10 μg/ml for 8 hours.

[9] = system: TNF-α; assay: Quantitative real-time PCR of total liver 12 hours after APAP, TNF-α; format: in vivo, mouse; conditions: aspirin pre-treatment
Protocol: as §1, §4

[10] = system: mice and rats; conditions: aspirin 200-600 mg/kg (dose range toxic to humans); cited from earlier work
[11] = system: IL-1β; assay: ELISA for serum IL-1β after APAP; format: in vivo, mouse; conditions: APAP with vs without ASA in drinking water; p<0.02
Protocol: ELISA for serum IL1-β was carried out by standard protocols.

With CC(=O)Oc1ccccc1C(=O)O [aspirin, acetylsalicylic acid] the “liver histology (liver injury and hemorrhage)” value [1] was “significant reduction in APAP induced liver injury and hemorrhage; also recorded: markedly improved”, the “serum ALT” value [2] was “significantly lower” and the “increase in pro-IL-18 message by APAP, whole liver” value [3] was “reduced to normal levels”. The “expression of IFN-γ, whole liver” value [4] was “reduced”, the “neutrophil exudates in MSU peritonitis” value [5] was “eightfold reduction” and the “increase in pro-IL-1β message by APAP, whole liver” value [6] was “reduced to normal levels”. For the same molecule, the “survival after APAP” value ([7]; aspirin 60 mg/l in drinking water 3 days before APAP 500 mg/kg ip, control n=13, aspirin n=17, P<0.02) was “markedly improved survival”, the survival ([7]; aspirin given concordantly with APAP, 6 mg/kg gavage, control 22%+/−19%, P<0.04) was 43%+/−11% and the “LPS induced up-regulation of pro-IL-1β transcript” value [8] was “reduced”. For the same molecule, the “expression of TNF-α, whole liver” value [9] was “reduced”, the “liver injury from APAP” value [10] was “reduce liver injury” and the “survival from APAP” value [10] was “not improve survival”. The “serum IL-1β levels” value [11] was “significant reduction”.

For COc1ccc(-n2nc(C(F)(F)F)cc2-c2ccc(Cl)cc2)cc1 [SC-560], the “protection against APAP toxicity (survival)” value ([7]; SC-560 5 mg/kg gavage twice daily from 60 hours before to 48 hours after APAP, n=10 each, P<0.97) was “did not protect”.

With COC(=O)[C@H](c1ccccc1Cl)N1CCc2sccc2C1 [clopidogrel] the “protection against APAP toxicity (survival)” value ([7]; clopidogrel 30 mg/kg gavage every 24 hrs from 48 hours before to 24 hours after APAP, n=15 each, P<0.31) was “did not protect”.
